These results are taken from publication PMC8836073, “Activatable Peptides for Rapid and Simple Visualization of Protease Activity Secreted in Living Cells” (International Journal of Molecular Sciences, 2022).

For series [1], the target named is T1, MMP2 secreted by HT-1080 cells (Homo sapiens, UniProt P08253).
T1 construct: endogenous in cells; host or cells: HT-1080 human fibrosarcoma cells
T1 sequence (P08253 110-660): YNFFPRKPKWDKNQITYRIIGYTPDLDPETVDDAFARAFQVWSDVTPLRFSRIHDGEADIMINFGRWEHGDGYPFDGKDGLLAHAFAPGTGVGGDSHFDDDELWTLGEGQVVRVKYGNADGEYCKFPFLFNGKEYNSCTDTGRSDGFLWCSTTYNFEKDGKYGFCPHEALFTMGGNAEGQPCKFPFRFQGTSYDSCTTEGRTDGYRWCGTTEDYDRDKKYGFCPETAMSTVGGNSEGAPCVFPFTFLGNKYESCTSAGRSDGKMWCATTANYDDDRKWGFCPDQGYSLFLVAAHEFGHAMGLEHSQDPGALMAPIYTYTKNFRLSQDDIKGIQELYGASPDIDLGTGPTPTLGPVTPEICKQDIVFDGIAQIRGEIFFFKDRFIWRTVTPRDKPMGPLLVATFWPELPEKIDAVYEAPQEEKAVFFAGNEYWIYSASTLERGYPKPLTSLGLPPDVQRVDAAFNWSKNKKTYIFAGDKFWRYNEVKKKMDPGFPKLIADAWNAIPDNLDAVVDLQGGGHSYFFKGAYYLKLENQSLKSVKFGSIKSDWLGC
Briefly: Pep1 intracellular fluorescence in HT-1080 cells with MMP2 inhibitor. In kind it is cell-based. As to conditions: HT-1080, Pep1 final 10 μM, MMP2 inhibitor (Figure S3). On the procedure: (§1) For live cell imaging, HT-1080 or HT-29 cells were cultured in Lab-Tek II chambered coverglass (Thermo Fisher Scientific) containers in RPMI-1640 media containing 10% FBS and 1× P/S at 37 °C. When the cells were 80% confluent, the culture medium was rinsed and changed to a fresh serum-free medium, followed by the addition of peptide probes at a final concentration of 10 μM. For organelle images, nuclei and lysosomes (or late endosomes) were stained with NucBlue (1 drop) and Lysotracker Red (50 nM) in serum-free media, respectively, and incubated in the dark for 10 min. After washing of the cells and removal of the chamber, cells adhering to the coverglass were subjected to bright-field or fluorescent images using a confocal microscope (Nikon C2si+, Japan). The excitation/emission wavelengths of NucBlue, FITC, and Lysotracker Red were 352/454 nm, 488/525 nm, and 577/590 nm, respectively. Typically, images were collected using a pixel dwell time of 10.3 μs on a 512 × 512 pixel image with 1 mW light power at the objective through a pinhole (60 μm) to reach the PMT. The frame rate was rather slow; the frame rate was about 0.255 FPS (frame per second) for a 512 × 512 frame (i.e., 1 frame per 3.9 s). To gain time-lapse images for FITC in living cells, one video file was constructed with images taken every 20 s for 30 min. […]

Series [2] addresses T2, active MMP9 (Homo sapiens, UniProt P14780).
T2 construct: active MMP2 (No. PF023), and active MMP9 (No. PF024) were purchased from Merck Millipore; purchased Merck Millipore PF024
Briefly: Fluorescent gel electrophoresis of peptide cleavage by active MMP9. In kind it is biochemical. As to conditions: peptide final 50 μM, active MMP9 final 0.1 μg in 40 μL; 20 mM Tris-HCl, 5 mM CaCl2, 100 mM NaCl, pH 7.6; 120 min, 37 °C; 0.8% agarose gel, FITC fluorescence. On the procedure:
(§2) Fluorescent gel electrophoresis was performed on 0.8% agarose gel at 50 V for 60 min. The agarose gel was cast and run using 0.5 × TB buffer. For the protease assay, Pep1 or Pep2 (1 μL at 2 mM, final 50 μM) was mixed with active MMP2 or active MMP9 (1 μL, final 0.1 μg) at a final volume of 40 μL in standard reaction buffer (20 mM Tris-HCl containing 5 mM CaCl2 and 100 mM NaCl, pH 7.6). The reactants were incubated in a tube for 120 min at 37 °C to induce the enzyme reaction, and 30 μL of the solution were loaded onto the agarose gel. As a control, a solution of Pep1 or Pep 2 (1 μL at 2 mM) without enzymes was resuspended in a reaction buffer (for a total of 40 μL), and the aliquot (30 μL) was used in gel electrophoresis. The fluorescent image of the agarose was captured using a home-built transilluminator equipped with a blue light-emitting diode lamp. The original image underwent a pseudo-color imaging process using an image-editing function in Microsoft PowerPoint 365.

Series [3] concerns HT-29 cells (MMP2-negative). Briefly: Live cell confocal imaging of peptide uptake in HT-29 cells. It counts as cell-based, Human. On the procedure:
as §1

Series [4] has as its system HT-1080 cells (MMP2-positive). Briefly: Live cell confocal imaging of peptide uptake in HT-1080 cells. In kind it is cell-based, Human. As to conditions: for intracellular fluorescence (confocal images, FITC channel): HT-1080, peptide final 10 μM in serum-free CM, 2 h after treatment. On the procedure: For live cell imaging, HT-1080 or HT-29 cells were cultured in Lab-Tek II chambered coverglass (Thermo Fisher Scientific) containers in RPMI-1640 media containing 10% FBS and 1× P/S at 37 °C. When the cells were 80% confluent, the culture medium was rinsed and changed to a fresh serum-free medium, followed by the addition of peptide probes at a final concentration of 10 μM. For organelle images, nuclei and lysosomes (or late endosomes) were stained with NucBlue (1 drop) and Lysotracker Red (50 nM) in serum-free media, respectively, and incubated in the dark for 10 min. After washing of the cells and removal of the chamber, cells adhering to the coverglass were subjected to bright-field or fluorescent images using a confocal microscope (Nikon C2si+, Japan). The excitation/emission wavelengths of NucBlue, FITC, and Lysotracker Red were 352/454 nm, 488/525 nm, and 577/590 nm, respectively. Typically, images were collected using a pixel dwell time of 10.3 μs on a 512 × 512 pixel image with 1 mW light power at the objective through a pinhole (60 μm) to reach the PMT. The frame rate was rather slow; the frame rate was about 0.255 FPS (frame per second) for a 512 × 512 frame (i.e., 1 frame per 3.9 s). To gain time-lapse images for FITC in living cells, one video file was constructed with images taken every 20 s for 30 min. Imaging analysis was performed using the NIS-Elements microscope imaging software (Ver 2.0).

The target in series [5] is T3, active MMP2 (Homo sapiens, UniProt P08253).
T3 construct: active MMP2 (No. PF023), and active MMP9 (No. PF024) were purchased from Merck Millipore; purchased Merck Millipore PF023
T3 sequence (P08253 110-660): T1 sequence (P08253 110-660)
Briefly: Fluorescent gel electrophoresis of peptide cleavage by active MMP2. As to conditions: peptide final 50 μM, active MMP2 final 0.1 μg in 40 μL; 20 mM Tris-HCl, 5 mM CaCl2, 100 mM NaCl, pH 7.6; 120 min, 37 °C; 0.8% agarose gel, FITC fluorescence. In kind it is biochemical. On the procedure:
as §2

Series [6] deals with HeLa cells. Briefly: Peptide uptake in HeLa cells. It counts as cell-based. Conditions: unlike HT-1080 cells.
The conditions of series [7]: FITC fluorescence; no reference given; cited from earlier work. On the procedure: Figure 4A,B were nearly identical to the images obtained at 2 h in Figure 3A,B, respectively. […] There was no signi ...

T2 sequence (P14780 107-707 limits assumed): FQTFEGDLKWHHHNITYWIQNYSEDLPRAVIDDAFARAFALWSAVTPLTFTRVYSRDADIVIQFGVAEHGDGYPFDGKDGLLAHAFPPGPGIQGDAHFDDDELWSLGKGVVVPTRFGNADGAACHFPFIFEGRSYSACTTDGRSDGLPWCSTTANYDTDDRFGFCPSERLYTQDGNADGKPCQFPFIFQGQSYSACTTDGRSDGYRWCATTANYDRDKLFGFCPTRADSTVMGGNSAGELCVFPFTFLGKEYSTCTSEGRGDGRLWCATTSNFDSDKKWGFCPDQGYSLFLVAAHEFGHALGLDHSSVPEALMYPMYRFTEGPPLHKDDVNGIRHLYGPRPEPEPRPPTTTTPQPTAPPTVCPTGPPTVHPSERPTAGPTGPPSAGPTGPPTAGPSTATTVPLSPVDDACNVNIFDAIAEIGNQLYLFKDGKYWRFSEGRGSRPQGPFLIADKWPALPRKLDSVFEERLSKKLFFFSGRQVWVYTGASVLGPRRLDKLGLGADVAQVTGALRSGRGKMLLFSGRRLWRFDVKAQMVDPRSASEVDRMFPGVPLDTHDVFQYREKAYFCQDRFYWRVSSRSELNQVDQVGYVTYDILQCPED

As to `O=C(O)[C@@H](Cc1ccccc1)NS(=O)(=O)c1ccc(-c2ccccc2)cc1` [MMP2 inhibitor, (2R)-2-[(4-biphenylylsulfonyl)amino]-3-phenylpropionic acid], the “effect on intracellular fluorescence intensity of Pep1” value in series [1] is on record as “significantly reduced”.

For EEEEGGIPVSLRSGGGRRRRK-FITC [Pep1], the “cleavage by active MMP9 (fluorescent band shift on agarose gel)” value in series [2] is given as “less effective than that by MMP2”. The “intracellular fluorescence (confocal images, FITC channel)” value in series [3] (HT-29, peptide final 10 μM in serum-free CM, 2 h after treatment, 37 °C) is “No significant fluorescence images”; in series [4] (37 °C), “strong fluorescence images”. In addition, in series [3] (living HT-29, Pep1 final 10 μM, 30 min), the “time-lapse fluorescence (30 min)” value is “no significant increase”. In addition, the cellular uptake in series [4] (HT-1080 cells, 30 min, percentage of FITC-stained cells over total cells) is 40~60%. The “time-lapse signal intensity (0 to 30 min)” value in series [4] (living HT-1080, peptide final 10 μM, 37 °C, compared to Pep2, triplicate experiments) is on record as “increased even after just 5 min”. For the same molecule, the “cleavage by active MMP2 (fluorescent band shift on agarose gel)” value in series [5] is recorded as “strong fluorescent band shift”.

Turning to EEEEGGRRRRK-FITC [Pep2], in series [2], the “cleavage by active MMP9 (fluorescent band shift on agarose gel)” value was “did not show any fluorescent band shifts”. Also, the “intracellular fluorescence (confocal images, FITC channel)” value in series [4] (37 °C) is “No significant fluorescence images”. Besides, in series [5], the “cleavage by active MMP2 (fluorescent band shift on agarose gel)” value is given as “did not show any fluorescent band shifts”.

For “GGIPVSLRSGGGRRRRK-FITC [Pep3, FITC-labeled positive control peptide without E4]”, the “intracellular fluorescence (confocal images, FITC channel)” value in series [4] (37 °C) was “strong fluorescence images”. For the same molecule, the “uptake by HeLa cells” value in series [6] is “did not take up”.

On to “LRSGGG-R4-FITC [cleaved Pep1, fluorescent fragment of Pep1 after MMP2 cleavage]”, for which, in series [6], the “uptake by HeLa cells” value is listed as “did not take up”.

For the molecule fluorescein isothiocyanate [FITC], the pKa (commonly the pH at which an ionisable group is half protonated) in series [7] is on record as 6.5.
